Target: T1, glycine site of the NMDA receptor (Rattus norvegicus, UniProt P35439)
T1 construct: rat brain membranes; from tissue; host or cells: rat brain membranes
Assay: Binding affinity for the glycine site of the NMDA receptor (test (a))
Details: displacement of a selective glycine site radioligand ([3H]-L-689,560) from rat brain membranes, tris-acetate buffer pH 7.4, 90 minutes
Experimental: (a) Binding affinity for the glycine site of the NMDA receptor
This may be measured by testing a compound's ability to displace a selective glycine site radioligand from rat brain membranes as described in Brit J Pharm (1991), 104, 74. In a variation of this method, thoroughly washed membrane protein is incubated with [^3 H]-L-689,560 for 90 minutes using tris-acetate buffer (pH 7.4). Displacement of the radioligand, using a range of test compound concentrations, is used to derive IC50 (50% inhibitory concentration) values.

| IC50 [µM] | Structure (SMILES) |
| --- | --- |
| < 0.1 | Cc1c(Cl)cc2[nH]c(=O)c(=O)[nH]c2c1N(CC(=O)O)S(C)(=O)=O [Example 3, N-(Carboxymethyl)-N-(1,4-dihydro-7-chloro-6-methyl-2,3-dioxoquinoxalin-5-yl)methanesulphonamide] |
| < 0.1 | Cc1cc2[nH]c(=O)c(=O)[nH]c2c(N(CC(=O)O)S(C)(=O)=O)c1Cl [5 [the (-)-isomer]] |
| < 0.1 | Cc1cc2[nH]c(=O)c(=O)[nH]c2c(N(CC(=O)O)S(C)(=O)=O)c1C [Example 7, N-(Carboxymethyl)-N-(1,4dihydro-6,7-dimethyl-2,3-dioxoquinoxalin-5-yl)methanesulphonamide] |
| < 0.1 | CCOC(=O)CN(c1c(C)c(C)cc2[nH]c(=O)c(=O)[nH]c12)S(C)(=O)=O [Example 11] |
| < 0.1 | CCCOC(=O)CN(c1c(C)c(C)cc2[nH]c(=O)c(=O)[nH]c12)S(C)(=O)=O [Example 12] |
| < 0.1 | Cc1c(Cl)cc2[nH]c(=O)c(=O)[nH]c2c1N(CCNS(=O)(=O)C(F)(F)F)S(C)(=O)=O [Example 4] |
| < 0.1 | CS(=O)(=O)NCCN(c1c(Cl)c(Cl)cc2[nH]c(=O)c(=O)[nH]c12)S(C)(=O)=O [Example 1, N-(1,4-Dihydro-6,7-dichloro-2,3-dioxoquinoxalin-5-yl)-N-(2-(N'-methanesulphonyl)-aminoethyl)methanesulphonamide] |
| < 0.1 | COC(=O)CN(c1c(C)c(C)cc2[nH]c(=O)c(=O)[nH]c12)S(C)(=O)=O [Example 10] |
| < 0.1 | Cn1cnc(S(=O)(=O)NCCN(c2c(Cl)c(Cl)cc3[nH]c(=O)c(=O)[nH]c23)S(C)(=O)=O)c1 [Example 2, N-(1,4-Dihydro-6,7-dichloro-2,3-dioxoquinoxalin-5-yl)-N-(2-(N'-4-(1H-1-methylimidazolyl)sulphonyl)aminoethyl)methanesulphonamide] |

— US5863917A, “Quinoxaline derivatives useful in therapy” (Pfizer, Inc., priority 1996, dated 1999)
